{"source": "paper PMC11001709", "about": "“Anti-toxoplasma activity and DNA-binding of copper(II) and zinc(II) coordination compounds with 5-nitroimidazole-based ligands” (Journal of Biological Inorganic Chemistry, 2023)", "key": {"[1]": {"test_system": "Euryhaliotrema perezponcei", "design": "method as in doi:10.1016/j.poly.2013.09.030, PMID 28917638", "settings": "in vitro and in vivo assays; cited from earlier work"}, "[2]": {"test_system": "RH tachyzoites of Toxoplasma gondii", "assay": "Viability of extracellular tachyzoites, Sytox Green exclusion test", "assay_type": "cell-based", "settings": "1 h", "experimental": "RH tachyzoites of Toxoplasma gondii were extracted in PBS solution at pH 7.4 from intraperitoneal fluid of infected CD1 mice on the third day of infection and centrifuged for ten minutes at 260g. Purified parasites were used within 4 h after their isolation.\nThe viability of the parasites was determined from staining with Sytox Green® fluorescent dye exclusion test. Purified tachyzoites (1 × 10^6) were incubated for one hour at room temperature with PBS solutions of the coordination compounds or the free ligands at concentrations of 40, 20, 10, 5, and 2.5 µM (0.1% DMSO), in a volume final of 1 mL. After the incubation time, the samples were centrifuged for 10 min at 250g, the medium was removed and 20 µL of Sytox Green® was added after 15 min of incubation for differentiate dead parasites in a Neubauer chamber. The assays were performed in triplicate. The half maximal inhibitory concentration (IC50) was calculated by Boltzmann regression analysis and expressed as mean ± standard error of three replicates. Based on the results the tachyzoites were incubated under the same conditions with the coordination compounds [Cu(onz)2Cl2] and [Cu(onz)2Br2] at their respective IC50 values, Sytox Green® was then added, and they were observed by fluorescence microscopy. Sulfadiazine was used as positive control.\nViability assays were performed against tachyzoites of Toxoplasma gondii. The RH strain was used to evaluate the effect of different concentrations (namely, 2.5, 5, 10, 20 and 40 µM) of the coordination compounds and the free 5-nitroimidazole against the tachyzoites. The evaluation were performed in PBS buffer (pH 7.4) with Sytox Green® exclusion test, which allows differentiating dead from live tachyzoites, since the intact cell membrane of alive ones is not stained."}, "[3]": {"settings": "intraperitoneal injection; cited from earlier work"}, "[4]": {"test_system": "ct-DNA", "assay": "Circular dichroism of ct-DNA", "assay_type": "binding, calf", "settings": "[DNA]b = 50 µM, [complex]/[DNA] 0-2, 1 h 37 °C", "experimental": "For the UV–Vis, fluorescence and circular dichroism assays the concentration of ct-DNA was determined on a Varian Cary 100 Scan spectrophotometer from the absorption at 260 nm and the corresponding molar absorptivity of 6600 M^−1 cm^−1 (nucleobase concentration). The stock solutions of the coordination compounds and the free ligands were prepared in cacodylate/NaCl buffer (1 mM cacodylic acid and 20 mM sodium chloride) at pH 7.25. The final samples contained a DMSO concentration of 0.2%.\nCircular dichroism (CD) spectra were recorded using a JASCO-815 spectropolarimeter, equipped with xenon-arc lamp of 450 W. The sample compartment was air-purged with N2 before use. For the measurements, a quartz cuvette with an optical path of 5 mm was used. A solution of 25 µM (in base pairs) of ct-DNA in cacodylate/NaCl buffer was incubated for 1 h at 37 °C with increasing amounts of coordination compounds (0–50 µM). The CD spectra were recorded at room temperature.\nThe interaction of small molecules with DNA can modify these CD signals depending on the type of binding. Intercalative interactions increase the intensity of the signals, as the result of an increase of the stability of the B conformation, whereas groove binding or covalent interactions tend to decrease the intensity of these signals, which are moreover displaced. The CD spectra for both ligands and their copper(II) and zinc(II) complexes were obtained at constant concentration of ct-DNA, increasing the complex concentration up to two equivalents ([complex]/[DNA] ratios of 0, 0.2, 0.4, 1, 2) with respect to the nucleobases concentration ([DNA]b = 50 µM)."}, "[5]": {"test_system": "Entamoeba histolytica", "settings": "cited from earlier work"}, "[6]": {"test_system": "pBR322 plasmid DNA", "assay": "Agarose gel electrophoresis, DNA cleavage", "assay_type": "biochemical", "settings": "for %Damage / %Nicked / %Supercoiled: compound 50 (mM in the source)", "experimental": "Electrophoresis assays were performed in 1.5% agarose gel and 1× TBE buffer using the DNA plasmid pBR322. The plasmid (15 µM base pairs) was incubated with 10 and 50 μM concentrations of the coordination compounds for 1 h at 37 °C in presence and absence of ascorbic acid (50 μM) as reducing agent and hydrogen peroxide (500 µM) as ROS generator in a final volume of 20 μL. The DNA-cleaving compound [Cu(phen)2(H2O)](NO3)2 was used as reference. The samples were loaded into the gel with 4 μL of a loading buffer (30% glycerol, 5 mM xylene cyanol), and electrophoresis was performed in 1× TBE at 100 V for 1 h in a Bio-Rad horizontal tank. Subsequently, the gel was stained with SYBR™ Safe overnight and images were acquired with a Gel Doc EZ Imager instrument (Bio-Rad).\nDistinct forms of pBR322 plasmid DNA are commonly observed by gel electrophoresis due to the conformational changes that present distinct electrophoretic mobility: (1) supercoiled DNA (Form I) that migrates faster on the gel, (2) circular nicked (Form II), obtained from a one-strand scission, has a slower migration through the gel and (3) linear form (Form III) is generated when both strands are cleaved and migrates between forms I and II [54]. The interaction of the free ligands and their copper(II) and zinc(II) coordination compounds with pBR322 was investigated in presence of H2Asc (50 μM) as reducing agent and H2O2 (500 μM) as ROS generator. Solutions of 10 and 50 µM of the coordination compounds were incubated with the DNA at 37 °C for 1 h."}, "[7]": {"assay": "Distribution coefficient LogD7.4, shake-flask 1-octanol/MOPS buffer", "assay_type": "physicochemical", "settings": "1-octanol/MOPS buffer, pH 7.4, octanol/water (MOPS buffer 10^–2 M), 25 °C", "experimental": "Solutions between 100 and 10 µM of the free ligands (cenz and onz) and the coordination compounds 3–10 were prepared in a MOPS buffer pH 7.4 as the aqueous phase and in 1-octanol as the organic phase. The absorption at 320 nm and 310 nm was determined for the aqueous and organic phase respectively by electronic spectroscopy (UV–Vis). Through a linear regression (concentration vs. absorption) the molar extinction coefficient of each compound in both phases was determined (Table 3). The lipophilicity was calculated in the 1-octanol/water system from the shake flask method using Eq. 1 [39]:1 […] where, Co is the final concentration in the organic phase and Cw is the final concentration in the aqueous phase (MOPS buffer at 10^–2 M pH 7.4). Both phases were presaturated with 50 µM solutions of the free ligands or 500 µM of each coordination compound and their UV spectrum was recorded. Both phases were combined and kept stirring for 3 h at 25 °C and in the absence of light. Subsequently, the mixture was centrifuged at 400g and the concentration in both phases was determined by UV–Vis spectroscopy using the Beer-Lambert law. The assays were performed in triplicate.\nThe T gondii parasite is an apicomplex organism; it requires a host cell to live, so it is important that the drugs used against the parasite have easy access to the cell. The lipophilicity of a compound is an important physicochemical property to determine its ability to permeate the biological membrane through passive diffusion; which usually is measured from the distribution coefficient logD7.4 = log(Co/Cw), in n-octanol/water. The shake-flask method was used to determine the LogD7.4 values from the molar extinction coefficients of the coordination compounds and the ligands in the two solvents (Table 3)."}}, "data": [{"smiles": "CCS(=O)(=O)CCn1c([N+](=O)[O-])cnc1C.CCS(=O)(=O)CCn1c([N+](=O)[O-])cnc1C.[Br][Cu][Br]", "note": "[[Cu(tnz)2Br2]]", "values": [{"measurement": "parasite mortality percentage", "setting": "[1]", "result": 100, "unit": "%"}]}, {"smiles": "Nc1ccc(S(=O)(=O)Nc2ncccn2)cc1", "note": "[sulfadiazine, reference compound]", "values": [{"measurement": "IC50", "setting": "[2]; Toxoplasma gondii, PBS pH 7.4, mean ± standard error of three replicates, read-out: IC50", "result": "> 1.6", "unit": "mM"}, {"measurement": "LD50", "setting": "[3]", "result": 180, "unit": "mg/kg"}]}, {"smiles": "Cc1ncc([N+](=O)[O-])n1CC(O)CCl", "note": "(centres unmarked) [onz, 1-(3-chloro-2-hydroxypropyl)-2-methyl-5-nitroimidazole, reference compound]", "values": [{"measurement": "activity against T. gondii", "setting": "[2]; 2.5-40 µM, PBS", "result": "did not show activity"}, {"measurement": "effect on CD spectrum of ct-DNA (bands at 275 and 245 nm)", "setting": "[4]", "result": "did not affect the DNA structure"}, {"measurement": "MIC", "setting": "[5]", "result": 12.5, "unit": "µM"}, {"measurement": "%Damage", "setting": "[6]; + H2Asc", "result": 11.80, "unit": "%"}, {"measurement": "%Nicked", "setting": "[6]; + H2Asc", "result": 5.60, "unit": "%"}, {"measurement": "%Supercoiled", "setting": "[6]; + H2Asc", "result": 88.20, "unit": "%"}, {"measurement": "%Damage", "setting": "[6]; + H2Asc + H2O2", "result": 8.80, "unit": "%"}, {"measurement": "%Nicked", "setting": "[6]; + H2Asc + H2O2", "result": 4.30, "unit": "%"}, {"measurement": "%Supercoiled", "setting": "[6]; + H2Asc + H2O2", "result": 91.20, "unit": "%"}, {"measurement": "%Damage", "setting": "[6]; + H2O2", "result": 10.70, "unit": "%"}, {"measurement": "%Nicked", "setting": "[6]; + H2O2", "result": 8.90, "unit": "%"}, {"measurement": "%Supercoiled", "setting": "[6]; + H2O2", "result": 89.30, "unit": "%"}, {"measurement": "%Damage", "setting": "[6]; no additive", "result": 9.80, "unit": "%"}, {"measurement": "%Nicked", "setting": "[6]; no additive", "result": 7.60, "unit": "%"}, {"measurement": "%Supercoiled", "setting": "[6]; no additive", "result": 90.20, "unit": "%"}, {"measurement": "DNA cleavage (in words)", "setting": "[6]; with and without H2Asc / H2O2", "result": "did not provoke any significant DNA cleavage"}, {"measurement": "logD at 3 h", "setting": "[7]", "result": 0.64}]}]}
